Measurements published in PubChem BioAssay (NCI).
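Cultured in 96-well plates, cells were exposed to test compound for 48 hours across five concentrations. GI50 = concentration required for 50% inhibition of growth. The concentration for full growth arrest is given as TGI.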

What was measured:
Test in all cases: inhibition of tumour cell growth, NCI panel, 48 h
NCI-H460 lung = tested on: NCI-H460 lung
LXFL 529 NSCLC = tested on: LXFL 529 NSCLC
OVCAR-8 ovarian = tested on: OVCAR-8 ovarian
UO-31 renal = tested on: UO-31 renal
OVCAR-5 ovarian = tested on: OVCAR-5 ovarian
KM12 colon = tested on: KM12 colon
EKVX NSCLC = tested on: EKVX NSCLC
HCT-116 colon = tested on: HCT-116 colon
SW-620 colon = tested on: SW-620 colon
SNB-75 CNS = tested on: SNB-75 CNS
CAKI-1 renal = tested on: CAKI-1 renal
MOLT-4 leukemia = tested on: MOLT-4 leukemia
M19-MEL melanoma = tested on: M19-MEL melanoma
MALME-3M melanoma = tested on: MALME-3M melanoma
SF-539 CNS = tested on: SF-539 CNS
OVCAR-4 ovarian = tested on: OVCAR-4 ovarian
DMS 114 small cell lung = tested on: DMS 114 small cell lung
A549 NSCLC = tested on: A549 NSCLC
HOP-92 NSCLC = tested on: HOP-92 NSCLC
TK-10 renal = tested on: TK-10 renal
DLD-1 colon = tested on: DLD-1 colon
LOX IMVI melanoma = tested on: LOX IMVI melanoma
UACC-62 melanoma = tested on: UACC-62 melanoma
SNB-19 CNS = tested on: SNB-19 CNS
HCC-2998 colon = tested on: HCC-2998 colon
K-562 leukemia = tested on: K-562 leukemia
NCI-H226 lung = tested on: NCI-H226 lung
HOP-18 NSCLC = tested on: HOP-18 NSCLC
A498 renal = tested on: A498 renal
SK-MEL-28 melanoma = tested on: SK-MEL-28 melanoma
NCI-H522 lung = tested on: NCI-H522 lung
SNB-78 CNS = tested on: SNB-78 CNS
ACHN renal = tested on: ACHN renal
CCRF-CEM leukemia = tested on: CCRF-CEM leukemia
UACC-257 melanoma = tested on: UACC-257 melanoma
HOP-62 NSCLC = tested on: HOP-62 NSCLC
RPMI-8226 leukemia = tested on: RPMI-8226 leukemia
U251 CNS = tested on: U251 CNS
HT29 colon = tested on: HT29 colon
SF-295 CNS = tested on: SF-295 CNS
NCI-H23 lung = tested on: NCI-H23 lung
786-0 renal = tested on: 786-0 renal
HCT-15 colon = tested on: HCT-15 colon
M14 melanoma = tested on: M14 melanoma
KM20L2 colon = tested on: KM20L2 colon
OVCAR-3 ovarian = tested on: OVCAR-3 ovarian
COLO 205 colon = tested on: COLO 205 colon
IGROV1 ovarian = tested on: IGROV1 ovarian
SF-268 CNS = tested on: SF-268 CNS
XF 498 CNS = tested on: XF 498 CNS
SK-OV-3 ovarian = tested on: SK-OV-3 ovarian
HL-60(TB) leukemia = tested on: HL-60(TB) leukemia
SN12C renal = tested on: SN12C renal
SR leukemia = tested on: SR leukemia
SK-MEL-5 melanoma = tested on: SK-MEL-5 melanoma
DMS 273 small cell lung = tested on: DMS 273 small cell lung
SK-MEL-2 melanoma = tested on: SK-MEL-2 melanoma

COc1cc2c(c(OC)c1OC)-c1ccc(SC)c(=O)cc1[C@@H](NCc1ccccc1[N+](=O)[O-])CC2
TGI (NCI-H460 lung): 0.0826 µM
TGI (LXFL 529 NSCLC): 15.8 µM
TGI (OVCAR-8 ovarian): 0.0499 µM
TGI (UO-31 renal): > 100 µM
GI50 (OVCAR-5 ovarian): > 100 µM
TGI (OVCAR-5 ovarian): > 100 µM
TGI (KM12 colon): 0.117 µM
TGI (EKVX NSCLC): > 100 µM
TGI (HCT-116 colon): 0.0278 µM
TGI (SW-620 colon): > 100 µM
GI50 (SNB-75 CNS): 1.53 µM
TGI (CAKI-1 renal): > 100 µM
TGI (MOLT-4 leukemia): > 100 µM
TGI (M19-MEL melanoma): > 100 µM
TGI (MALME-3M melanoma): > 100 µM
TGI (SF-539 CNS): 0.0199 µM
TGI (OVCAR-4 ovarian): > 100 µM
TGI (DMS 114 small cell lung): 0.0243 µM
TGI (A549 NSCLC): > 100 µM
TGI (HOP-92 NSCLC): > 100 µM
TGI (TK-10 renal): > 100 µM
TGI (DLD-1 colon): > 100 µM
TGI (LOX IMVI melanoma): 19 µM
TGI (UACC-62 melanoma): 18.2 µM
TGI (SNB-19 CNS): > 100 µM
TGI (HCC-2998 colon): 0.0407 µM
GI50 (K-562 leukemia): 0.171 µM
TGI (K-562 leukemia): > 100 µM
TGI (NCI-H226 lung): 0.0558 µM
GI50 (HOP-18 NSCLC): > 100 µM
TGI (HOP-18 NSCLC): > 100 µM
TGI (A498 renal): 0.0283 µM
TGI (SK-MEL-28 melanoma): > 100 µM
TGI (NCI-H522 lung): 0.0298 µM
TGI (SNB-78 CNS): 40.6 µM
TGI (ACHN renal): > 100 µM
TGI (CCRF-CEM leukemia): 38.5 µM
TGI (UACC-257 melanoma): 47.2 µM
TGI (HOP-62 NSCLC): > 100 µM
TGI (RPMI-8226 leukemia): 23.1 µM
TGI (U251 CNS): 0.0419 µM
TGI (HT29 colon): 0.0146 µM
TGI (SF-295 CNS): > 100 µM
TGI (NCI-H23 lung): 0.0237 µM
TGI (786-0 renal): 41.5 µM
TGI (HCT-15 colon): 0.0487 µM
TGI (M14 melanoma): 0.21 µM
TGI (KM20L2 colon): 0.0112 µM
TGI (OVCAR-3 ovarian): 0.0293 µM
TGI (COLO 205 colon): 0.0556 µM

CC1(C)CC(C)(C)CC(O)(C2(O)CC(C)(C)CC(C)(C)C2)C1
TGI (NCI-H460 lung): > 100 µM
TGI (LXFL 529 NSCLC): > 100 µM
TGI (OVCAR-8 ovarian): > 100 µM
TGI (UO-31 renal): > 100 µM
TGI (IGROV1 ovarian): > 100 µM
TGI (KM12 colon): > 100 µM
TGI (SF-268 CNS): > 100 µM
TGI (EKVX NSCLC): > 100 µM
TGI (HCT-116 colon): > 100 µM
TGI (SW-620 colon): > 100 µM
TGI (XF 498 CNS): > 100 µM
TGI (MOLT-4 leukemia): > 100 µM
TGI (M19-MEL melanoma): > 100 µM
TGI (SK-OV-3 ovarian): > 100 µM
TGI (MALME-3M melanoma): > 100 µM
TGI (SF-539 CNS): > 100 µM
TGI (DMS 114 small cell lung): > 100 µM
TGI (A549 NSCLC): > 100 µM
TGI (TK-10 renal): > 100 µM
TGI (HL-60(TB) leukemia): > 100 µM
TGI (LOX IMVI melanoma): > 100 µM
TGI (UACC-62 melanoma): > 100 µM
TGI (SNB-19 CNS): > 100 µM
TGI (HCC-2998 colon): > 100 µM
TGI (K-562 leukemia): > 100 µM
TGI (NCI-H226 lung): > 100 µM
TGI (SN12C renal): > 100 µM
TGI (SK-MEL-28 melanoma): > 100 µM
TGI (NCI-H522 lung): > 100 µM
TGI (ACHN renal): > 100 µM
TGI (CCRF-CEM leukemia): > 100 µM
TGI (UACC-257 melanoma): > 100 µM
TGI (HOP-62 NSCLC): > 100 µM
TGI (RPMI-8226 leukemia): > 100 µM
TGI (U251 CNS): > 100 µM
TGI (HT29 colon): > 100 µM
TGI (SF-295 CNS): > 100 µM
TGI (NCI-H23 lung): > 100 µM
TGI (786-0 renal): > 100 µM
TGI (HCT-15 colon): > 100 µM
TGI (M14 melanoma): > 100 µM
TGI (KM20L2 colon): > 100 µM
TGI (OVCAR-3 ovarian): > 100 µM
TGI (SR leukemia): > 100 µM
TGI (SK-MEL-5 melanoma): > 100 µM
TGI (COLO 205 colon): > 100 µM
TGI (DMS 273 small cell lung): > 100 µM

O=c1[nH]cnc2c1sc(=S)n2-c1ccccc1
TGI (NCI-H460 lung): > 100 µM
TGI (LXFL 529 NSCLC): > 100 µM
TGI (OVCAR-8 ovarian): > 100 µM
TGI (UO-31 renal): > 100 µM
TGI (OVCAR-5 ovarian): > 100 µM
TGI (IGROV1 ovarian): > 100 µM
TGI (KM12 colon): > 100 µM
TGI (SF-268 CNS): > 100 µM
TGI (EKVX NSCLC): > 100 µM
TGI (HCT-116 colon): > 100 µM
TGI (SW-620 colon): > 100 µM
TGI (XF 498 CNS): > 100 µM
TGI (SNB-75 CNS): > 100 µM
TGI (CAKI-1 renal): > 100 µM
TGI (MOLT-4 leukemia): > 100 µM
TGI (M19-MEL melanoma): > 100 µM
TGI (SK-OV-3 ovarian): > 100 µM
TGI (MALME-3M melanoma): > 100 µM
TGI (SF-539 CNS): > 100 µM
TGI (OVCAR-4 ovarian): > 100 µM
TGI (DMS 114 small cell lung): > 100 µM
TGI (A549 NSCLC): > 100 µM
TGI (SK-MEL-2 melanoma): > 100 µM
TGI (HOP-92 NSCLC): > 100 µM
TGI (TK-10 renal): > 100 µM
TGI (HL-60(TB) leukemia): > 100 µM
TGI (DLD-1 colon): > 100 µM
TGI (LOX IMVI melanoma): > 100 µM
TGI (UACC-62 melanoma): > 100 µM
TGI (SNB-19 CNS): > 100 µM
TGI (HCC-2998 colon): > 100 µM
TGI (K-562 leukemia): > 100 µM
TGI (NCI-H226 lung): > 100 µM
TGI (A498 renal): > 100 µM
TGI (SN12C renal): > 100 µM
TGI (SK-MEL-28 melanoma): > 100 µM
TGI (NCI-H522 lung): > 100 µM
TGI (SNB-78 CNS): > 100 µM
TGI (ACHN renal): > 100 µM
TGI (CCRF-CEM leukemia): > 100 µM
TGI (UACC-257 melanoma): > 100 µM
TGI (HOP-62 NSCLC): > 100 µM
TGI (U251 CNS): > 100 µM
TGI (HT29 colon): > 100 µM
TGI (SF-295 CNS): > 100 µM
TGI (NCI-H23 lung): > 100 µM
TGI (786-0 renal): > 100 µM
TGI (HCT-15 colon): > 100 µM
TGI (M14 melanoma): > 100 µM
TGI (KM20L2 colon): > 100 µM
TGI (OVCAR-3 ovarian): > 100 µM
TGI (SR leukemia): > 100 µM
TGI (SK-MEL-5 melanoma): > 100 µM
TGI (COLO 205 colon): > 100 µM
TGI (DMS 273 small cell lung): > 100 µM
